Reference: patent US6914045B2, “Glycopeptide antibiotics” (Wyeth Holdings Corporation, priority 2001, dated 2005)
In brackets after ≈: the same amount, converted by molar mass.

Legend:
Test in all cases: in vitro antibacterial evaluation, MIC by broth dilution
Assay type in all cases: cell-based
[1] = system: Staphylococcus sp.; conditions: broth dilution, 18 hours at 35° C.
Method in brief: (§1)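 Following National Committee for Clinical Laboratory Standards recommendations (M7-A2), susceptibility was measured by dilution in Muller-Hinton II […]. Bacteria were seeded at 5×10^5 CFU/mL against compound concentrations from 64 down to 0.06 μg/mL.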

[2] = system: Enterococcus sp.; conditions: broth dilution, 18 hours at 35° C.; for MIC Enterococcus faecalis (ATCC 29212): strain ATCC 29212; for MIC Enterococcus faecium (GC 2243): strain GC 2243; for MIC Enterococcus faecalis (GC 4554): strain GC 4554; for MIC Enterococcus faecium (GC 4556): strain GC 4556; for MIC Enterococcus faecium (GC 4557): strain GC 4557; for MIC Enterococcus avium (GC 4558): strain GC 4558; for MIC Enterococcus faecalis (GC 6189): strain GC 6189
Method in brief: as §1

[3] = system: Escherichia coli
Method in brief: as §1

[4] = system: Streptococcus sp.; conditions: broth dilution, 18 hours at 35° C.
Method in brief: as §1

## CC(c1ccccc1)C1NC(=O)CNC(=O)C(CO)NC(=O)C(C(O)C2CNC(=N)N2C2OC(CO)C(O)C(O)C2O)NC(=O)C(C(O)C2CNC(=NC(=O)C(C)(C)C)N2)NC(=O)C(Cc2ccc(OC3OC(CO)C(OC4OC(CO)C(O)C(O)C4O)C(O)C3O)cc2)NC1=O (stereo not shown) [Example 155]
[1]; strain GC 3051
  MIC Staphylococcus aureus (GC 3051): 0.5 µg/mL (≈ 0.362 µM)
[1]; strain GC 3053
  MIC Staphylococcus aureus (GC 3053): 0.5 µg/mL (≈ 0.362 µM)
[1]; strain GC 4545
  MIC Staphylococcus aureus (GC 4545): 0.5 to 1 µg/mL
[1]; strain GC 4546
  MIC Staphylococcus haemolyticus (GC 4546): <0.5 to 1 µg/mL
[1]; strain GC 4547
  MIC Coagulase Negative Staphylococcus (GC 4547): <0.5 to 2 µg/mL
[1]; strain GC 4548
  MIC Coagulase Negative Staphylococcus (GC 4548): <0.5 to 1 µg/mL
[1]; strain GC 4549
  MIC Coagulase Negative Staphylococcus (GC 4549): <0.5 to 1 µg/mL
[1]; strain GC 4551
  MIC Coagulase Negative Staphylococcus (GC 4551): <0.5 to 1 µg/mL
[1]; strain GC 6257
  MIC Coagulase Negative Staphylococcus (GC 6257): 1 µg/mL (≈ 0.725 µM)
[1]; strain ID-3941
  MIC Coagulase Negative Staphylococcus (ID-3941): <0.5 µg/mL
[2]; Enterococcus faecalis (GC 2242)
  MIC Enterococcus faecalis (GC 2242): 0.5 to 1 µg/mL
[2]; Enterococcus faecalis (GC 2691)
  MIC Enterococcus faecalis (GC 2691): 0.5 µg/mL (≈ 0.362 µM)
[2]; Enterococcus faecalis (GC 3059)
  MIC Enterococcus faecalis (GC 3059): 0.5 µg/mL (≈ 0.362 µM)
[2]; inoculum 5×10^5 CFU/mL
  MIC Enterococcus faecalis (ATCC 29212): 0.5 to 1 µg/mL
  MIC Enterococcus faecium (GC 2243): <0.5 to 1 µg/mL
  MIC Enterococcus faecalis (GC 4554): 0.5 to 1 µg/mL
  MIC Enterococcus faecium (GC 4556): 1 to 2 µg/mL
  MIC Enterococcus faecium (GC 4557): 1 to 2 µg/mL
  MIC Enterococcus avium (GC 4558): 0.5 to 1 µg/mL
  MIC Enterococcus faecalis (GC 6189): 0.5 µg/mL (≈ 0.362 µM)
[2]
  MIC Enterococcus faecalis (ATCC 29212): 0.5 to 1 µg/mL
  MIC Enterococcus faecium (GC 2243): <0.5 to 1 µg/mL
  MIC Enterococcus faecalis (GC 4554): 0.5 to 1 µg/mL
  MIC Enterococcus faecium (GC 4556): 1 to 2 µg/mL
  MIC Enterococcus faecium (GC 4557): 1 to 2 µg/mL
  MIC Enterococcus avium (GC 4558): 0.5 to 1 µg/mL
  MIC Enterococcus faecalis (GC 6189): 0.5 µg/mL (≈ 0.362 µM)
[2]; strain GC 2242
  MIC Enterococcus faecalis (GC 2242): 0.5 to 1 µg/mL
[2]; strain GC 2691
  MIC Enterococcus faecalis (GC 2691): 0.5 µg/mL (≈ 0.362 µM)
[2]; strain GC 3059
  MIC Enterococcus faecalis (GC 3059): 0.5 µg/mL (≈ 0.362 µM)
[3]; strain ATCC 25922, 18 hours at 35° C.
  MIC Escherichia coli (ATCC 25922): >64 µg/mL
[3]; strain GC 4559, 18 hours at 35° C.
  MIC Escherichia coli (GC 4559): >64 µg/mL
[3]; strain GC 4560, 18 hours at 35° C.
  MIC Escherichia coli (GC 4560): 0.5 to 2 µg/mL
[4]; Streptococcus agalactiae (GC 4564)
  MIC Streptococcus agalactiae (GC 4564): <0.12 µg/mL
[4]; Streptococcus pneumoniae (ATCC 6301)
  MIC Streptococcus pneumoniae (ATCC 6301): 0.12 µg/mL (≈ 0.087 µM)
[4]; Streptococcus pneumoniae (GC 1894)
  MIC Streptococcus pneumoniae (GC 1894): 0.12 µg/mL (≈ 0.087 µM)
[4]; Streptococcus pyogenes (GC 4563)
  MIC Streptococcus pyogenes (GC 4563): >0.12 µg/mL
[4]; Streptococcus pyogenes (ID-3187)
  MIC Streptococcus pyogenes (ID-3187): <0.5 µg/mL
[4]; strain ATCC 6301
  MIC Streptococcus pneumoniae (ATCC 6301): 0.12 µg/mL (≈ 0.087 µM)
[4]; strain GC 1894
  MIC Streptococcus pneumoniae (GC 1894): 0.12 µg/mL (≈ 0.087 µM)
[4]; strain GC 4563
  MIC Streptococcus pyogenes (GC 4563): >0.12 µg/mL
[4]; strain GC 4564
  MIC Streptococcus agalactiae (GC 4564): <0.12 µg/mL
[4]; strain ID-3187
  MIC Streptococcus pyogenes (ID-3187): <0.5 µg/mL
